The target in data set [1] is T1, Histamine H4 receptor (Homo sapiens, UniProt Q9H3N8). Briefly: Antagonist activity at human histamine H4 receptor at 15 uM by functional assay. Also noted: scale not given: the % may be the effect or the level left.
In data set [2] the target is T1, Histamine H4 receptor. Briefly: Displacement of [3H]histamine from human histamine H4 receptor expressed in CHO cells after 90 mins by scintillation counting technique. It is filed as cell-based. In general terms: In a radioligand displacement assay an active substance lowers the binding of a labelled ligand.
The target in data set [3] is T1, Histamine H4 receptor. Briefly: Antagonist activity at human histamine H4 receptor by functional assay.
A short description of data set [4]: Distribution coefficient, log D of the compound at pH 7.4. Type of data set: physicochemical. The settings on record: octanol/water.
Data set [5] deals with T2, Histamine H3 receptor (Homo sapiens, UniProt Q9Y5N1). Briefly: Antagonist activity at histamine H3 receptor. Type of data set: functional.
The target in data set [6] is T2, Histamine H3 receptor. Kind of data set: Binding affinity to human histamine H3 receptor.
In data set [7] the target is T2, Histamine H3 receptor. Briefly: Binding affinity to histamine H3 receptor.
Data set [8] can be described thus: Metabolic stability in rat liver microsomes. As to conditions: read-out: Stability. It is filed as ADME, Microsome. On the technique in general: Liver microsomes are vesicles of endoplasmic reticulum, rich in cytochrome P450 enzymes.
The nature of data set [9]: Metabolic stability in human liver microsomes. It is filed as ADME, Microsome. As to conditions: read-out: Stability.
For data set [10], the target named is Histamine H2 receptor (Homo sapiens, UniProt P25021). Briefly: Antagonist activity at histamine H2 receptor. Type of data set: functional.
In data set [11] the target is Histamine H1 receptor (Homo sapiens, UniProt P35367). Briefly: Antagonist activity at histamine H1 receptor. Type of data set: functional.
The subject of data set [12] is Liver microsomes. Kind of data set: Intrinsic clearance in rat liver microsomes. Type of data set: ADME, Microsome.

The values below come from ChEMBL document CHEMBL1914410, “Discovery of a series of potent and selective human H4 antagonists using ligand efficiency and libraries to explore structure-activity relationship (SAR)” (Bioorg Med Chem Lett, 2011).

Bounds are passed on as bounds.

T1 sequence (Q9H3N8 whole entry): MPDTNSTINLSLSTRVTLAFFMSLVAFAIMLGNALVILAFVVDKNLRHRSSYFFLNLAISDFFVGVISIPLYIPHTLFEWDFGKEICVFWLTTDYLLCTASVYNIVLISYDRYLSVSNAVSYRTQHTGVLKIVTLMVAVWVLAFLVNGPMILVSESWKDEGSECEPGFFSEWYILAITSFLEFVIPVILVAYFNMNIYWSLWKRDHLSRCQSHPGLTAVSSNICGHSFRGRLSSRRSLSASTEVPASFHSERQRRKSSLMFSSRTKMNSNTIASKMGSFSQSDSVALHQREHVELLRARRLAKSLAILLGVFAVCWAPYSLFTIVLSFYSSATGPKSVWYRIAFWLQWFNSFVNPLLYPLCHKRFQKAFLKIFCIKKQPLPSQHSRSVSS
T2 sequence (Q9Y5N1 whole entry): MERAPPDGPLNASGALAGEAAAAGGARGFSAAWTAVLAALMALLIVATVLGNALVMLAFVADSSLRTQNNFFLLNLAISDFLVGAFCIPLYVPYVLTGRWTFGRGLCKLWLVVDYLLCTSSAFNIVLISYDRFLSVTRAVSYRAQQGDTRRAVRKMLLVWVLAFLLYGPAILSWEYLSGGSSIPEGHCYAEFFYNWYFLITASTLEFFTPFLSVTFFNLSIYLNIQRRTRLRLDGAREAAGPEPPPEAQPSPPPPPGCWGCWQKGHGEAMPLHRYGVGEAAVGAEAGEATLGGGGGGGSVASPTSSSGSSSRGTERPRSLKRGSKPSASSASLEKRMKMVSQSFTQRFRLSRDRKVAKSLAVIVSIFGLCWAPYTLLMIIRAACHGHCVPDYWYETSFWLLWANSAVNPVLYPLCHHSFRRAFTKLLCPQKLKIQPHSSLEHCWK
Histamine H2 receptor, sequence (P25021 whole entry): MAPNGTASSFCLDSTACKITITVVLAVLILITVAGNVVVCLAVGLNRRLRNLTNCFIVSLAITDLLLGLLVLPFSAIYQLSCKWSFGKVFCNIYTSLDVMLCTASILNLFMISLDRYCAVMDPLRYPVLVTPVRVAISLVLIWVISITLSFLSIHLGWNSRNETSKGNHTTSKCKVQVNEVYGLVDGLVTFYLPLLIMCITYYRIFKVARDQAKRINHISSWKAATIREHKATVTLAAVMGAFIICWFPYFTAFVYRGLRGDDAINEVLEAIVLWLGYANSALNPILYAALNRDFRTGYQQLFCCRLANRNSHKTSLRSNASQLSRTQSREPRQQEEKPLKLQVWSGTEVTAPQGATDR
Histamine H1 receptor, sequence (P35367 whole entry): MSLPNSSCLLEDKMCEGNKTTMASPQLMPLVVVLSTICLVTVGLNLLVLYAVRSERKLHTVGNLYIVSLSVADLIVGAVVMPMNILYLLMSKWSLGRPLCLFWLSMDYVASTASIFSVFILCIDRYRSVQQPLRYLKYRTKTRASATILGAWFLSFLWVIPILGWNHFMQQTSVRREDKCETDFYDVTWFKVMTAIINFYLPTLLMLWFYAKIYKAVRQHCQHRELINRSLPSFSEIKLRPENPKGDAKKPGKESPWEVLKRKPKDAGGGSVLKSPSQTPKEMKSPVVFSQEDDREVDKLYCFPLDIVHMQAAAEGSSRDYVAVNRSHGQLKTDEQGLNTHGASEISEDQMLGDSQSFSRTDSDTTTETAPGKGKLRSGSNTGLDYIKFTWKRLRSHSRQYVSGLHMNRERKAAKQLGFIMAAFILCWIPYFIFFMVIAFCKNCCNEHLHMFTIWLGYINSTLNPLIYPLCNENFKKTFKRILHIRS

For orientation: Ki means a dissociation constant, usually derived from enzyme kinetics or from competition with a known ligand. Molecule `CC(C)(C)CCNc1cc(NC2CCN(Cc3ccc(CO)o3)C2)ncn1` (stereo not given) returned an Activity in data set [1] of 73%. In [2], this molecule displayed an inhibition constant Ki of 2110 nM.
`CN1CCN(C(=O)c2nc3cc(Cl)ccc3[nH]2)CC1`: the Ki in data set [2] is 47.7 nM; in data set [3], 39.6 nM.
In turn, `CN1CCN(c2cc(NCc3ccccc3)ncn2)CC1` displayed a Ki in data set [2] of 207 nM.
On the same count and under the same terms, the value for `CN1CCN(c2cc(N3[C@@H]4CCC[C@@H]3C4)ncn2)CC1` was 860 nM.
As usually defined, the logD is lipophilicity at a set pH, counting ionised and neutral species. In [4], `CN1CCN(c2cnc3ccccc3n2)CC1` came in with a log distribution coefficient (logD) of 1.76. Moreover, in data set [2], the affinity corresponds to a Ki of 1060 nM.
In turn, `CC(C)(C)CCNc1cc(N[C@@H]2CCNC2)ncn1` yielded an inhibition constant (Ki) in [5] of 13600 nM.
With `CN1CCCN(c2cc(NCC(C)(C)C)ncn2)CC1`, the logD in data set [4] was 0.96.
`CC(C)(C)CCNc1cc(N2CCN(C3CCCCC3)CC2)ncn1`: the logD in [4] was determined as 3.84. Besides, the Ki in data set [2] was determined as 601 nM.
Molecule `CN1CC[C@H](Nc2cc(NCCC(C)(C)C)ncn2)C1` gave an inhibition constant Ki in data set [2] of 593 nM.
The molecule `CC(C)(C)CCNc1cc(N2CCNCC2)ncn1` registered a logD in data set [4] of 1.4.
In the case of `CN(C)[C@@H]1CCN(c2cc(NCC(C)(C)C)ncn2)C1`, in data set [4], the logD was 1.09. Besides, the affinity in [6] corresponds to a Ki of 54 nM.
With `Cc1ccc(C#N)c(N2CC3CN(C)CC3C2)n1` (stereo not given), the logD in data set [4] is -0.86. Also, the Ki in data set [2] is 930 nM.
The molecule `CN1CCN(c2cc(NCC(C)(C)C)ncn2)CC1` yielded a pH-dependent lipophilicity (logD) in [4] of 1.75. The same molecule gave a Ki in data set [6] of 825 nM.
In [1], `CN1CCN(c2cc(C(=O)NCc3cccc(C(F)(F)F)c3)ncn2)CC1` displayed an Activity of 57%. The molecule further came in with a Ki in data set [2] of 34900 nM.
`COc1ccccc1Cn1ccc(NCCc2cnc[nH]2)nc1=O` registered an Activity in data set [1] of 65%. Also, the inhibition constant (Ki) in [2] is 1600 nM; in data set [3] it was above 2000 nM.
`CN1CCN(c2cc(NC3Cc4ccccc4C3)ncn2)CC1` had a Ki in data set [2] of 212 nM.
Molecule `CN1CCN(c2cc(NCCC(C)(C)C)ncn2)CC1` gave a logD in data set [4] of 2.6. The inhibitory constant (Ki) in data set [7] is 646 nM; in data set [3], 37 nM; in [10], 3560 nM; in [11], above 10000 nM. Further, the microsomal CLint in [8] is 147 µL/min/mg; in [9], 16 µL/min/mg.
Turning to `CC(C)(C)CCNc1cc(N[C@H]2CCN(Cc3cccc(F)c3O)C2)ncn1`, affinity in data set [2] (cho) was put at a Ki of 20000 nM.
Same read-out and setting: the figure for `COCc1ccc(CN2CC[C@H](Nc3cc(NCCC(C)(C)C)ncn3)C2)o1` is 20000 nM.
In turn, `CN(C)CCNc1cc(NCC2CC2)ncn1` had a CL in data set [12] of 143 µL/min.
The molecule `CC(C)(C)CCNc1cc(N[C@H]2CCNC2)ncn1` yielded a logD in data set [4] of 0.6. The Ki in data set [3] is 572 nM; in data set [5], 8220 nM; in data set [10], 8820 nM; in data set [11], above 40000 nM.
On to `COc1cccc(C(O)(COc2ccccc2C)CN2CCN(C)CC2)c1` (stereo not given), for which, in data set [1], the Activity was determined as 60%. Moreover, the inhibition constant Ki in [2] was 3240 nM; in data set [3] it was above 2000 nM; in [5], 2500 nM.
